Reference: patent US8476287B2, “3-hydroxy-5-arylisothiazole derivative” (Mochida Pharmaceutical Co., Ltd., priority 2009, dated 2013)

Target: T1, GPR40 of human origin (Homo sapiens, UniProt O14842)
T1 construct: expressed in transfected cells
Assay: Agonist action on GPR40 of human origin (Ca2+ fluorescence in CHO cells)
Type: cell-based
Settings: CHO cell strain stably expressing GPR40 of human origin; Ca2+ concentration fluctuation, fluorescent calcium indicator
Protocol: A CHO cell strain stably expressing GPR40 of human origin was used to determine the agonist action of a subject compound. This cell strain was seeded in a clear bottom 96 well plate at 4×10^4 cells/100 μL/well. The cell strain was cultured in a CO2 incubator overnight using a Ham's F-12 medium containing a 10% fetal bovine serum, 100 U/mL penicillin, 0.1 mg/mL streptomycin, and 400 μg/mL Geneticin. Calcium 4 Assay Kit (Molecular Devices) was used as a fluorescent calcium indicator. One mL of 77 mg/mL probenecid (Invitrogen) was added to 100 mL of a calcium indicator solution to prepare a solution (loading solution) mixed with a 20 mM HEPES-containing Hanks' balanced salt solution (HBSS) in equal proportions. 200 μL of the loading solution was added to the cells from which the culture solution was removed, and the cells were cultured in a CO2 incubator for 1 hour. The subject compound was diluted with a 20 mM HEPES-containing HBSS and was added to the cells by 50 μL, and the fluctuation of the Ca^2+ concentration was measured by an intracellular ion analyzer. The EC50 value of the subject compound was calculated using the dose-response curve of fluorescence intensity variation.

T1 sequence (O14842 whole entry): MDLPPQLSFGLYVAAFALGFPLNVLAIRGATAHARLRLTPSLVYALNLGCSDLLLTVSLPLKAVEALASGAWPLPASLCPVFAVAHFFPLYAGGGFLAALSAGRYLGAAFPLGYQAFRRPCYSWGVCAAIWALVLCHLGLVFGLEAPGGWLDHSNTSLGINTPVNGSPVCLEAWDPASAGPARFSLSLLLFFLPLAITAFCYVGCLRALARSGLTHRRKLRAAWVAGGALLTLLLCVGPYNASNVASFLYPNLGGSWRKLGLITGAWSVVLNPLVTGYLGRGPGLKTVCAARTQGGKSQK

Row | EC50 [nM] | Compound
1 | < 300 | [O-][s+]1nc(O)cc1-c1ccc(OCc2cccc(Cl)c2)cc1 (single isomer, unassigned) [Example 89, 5-[4-[(3-chlorophenyl)methoxy]phenyl]isothiazol-3-ol 1-oxide(A)]
2 | 300 to 3000 | [O-][s+]1nc(O)cc1-c1ccc(OCc2cccc(N3CCC(F)(F)CC3)c2)cc1 (single isomer, unassigned) [Example 93, 5-[4-[[3-(4,4-difluoropiperidin-1-yl)phenyl]methoxy]phenyl]isothiazol-3-ol 1-oxide(A)]
3 | 300 to 3000 | [O-][s+]1nc(O)cc1-c1ccc(OCc2cccc3c2OCC3)cc1 (single isomer, unassigned) [Example 95, 5-[4-(2,3-dihydro-1-benzofuran-7-ylmethoxy)phenyl]isothiazol-3-ol 1-oxide(A)]
4 | < 300 | Cc1cccc(C)c1-c1cccc2c1CC[C@H]2Oc1ccc(-c2cc(O)n[s+]2[O-])cc1 (single isomer, unassigned) [Example 107]
5 | < 300 | [O-][s+]1nc(O)cc1-c1ccc(O[C@@H]2CCc3c(C4CC4)cccc32)cc1 (single isomer, unassigned) [Example 109]
6 | < 300 | [O-][s+]1nc(O)cc1-c1ccc(O[C@@H]2CCc3c(-c4cccnc4)cccc32)cc1 (single isomer, unassigned) [Example 111]
7 | 300 to 3000 | [O-][s+]1nc(O)cc1-c1ccc(O[C@@H]2CCc3c(-c4cccnc4C(F)(F)F)cccc32)cc1 (single isomer, unassigned) [Example 117]
8 | < 300 | [O-][s+]1nc(O)cc1-c1ccc(O[C@@H]2CCc3c(-c4ccc(N5CCCCC5)nc4)cccc32)cc1 (single isomer, unassigned) [Example 118]
9 | 300 to 3000 | CC1(C)CC=C(c2cccc3c2CC[C@H]3Oc2ccc(-c3cc(O)n[s+]3[O-])cc2)CC1 (single isomer, unassigned) [Example 120]
10 | < 300 | Cc1nc(OCCC(C)(C)O)ccc1-c1cccc2c1CC[C@H]2Oc1ccc(-c2cc(O)n[s+]2[O-])cc1 (single isomer, unassigned) [Example 135]
11 | < 300 | Cc1cc(OCCCS(C)(=O)=O)cc(C)c1-c1cccc2c1CC[C@H]2Oc1ccc(-c2cc(O)n[s+]2[O-])cc1 (single isomer, unassigned) [Example 138]
12 | < 300 | CCOCCOc1cc(C)c(-c2cccc3c2CC[C@H]3Oc2ccc(-c3cc(O)n[s+]3[O-])cc2)c(C)c1 (single isomer, unassigned) [Example 139]
13 | 300 to 3000 | [O-][s+]1nc(O)cc1-c1ccc(OCc2cccc(Oc3ccccc3)c2)cc1 (stereo not drawn) [Example 2, 5-(4-((3-phenoxyphenyl)methoxy)phenyl)isothiazol-3-ol 1-oxide]
14 | 300 to 3000 | [O-][s+]1nc(O)cc1-c1ccc(OC2CCc3cc(Cl)ccc32)cc1 (stereo not drawn) [Example 6, 5-(4-(5-chloro-2,3-dihydro-1H-inden-1-yloxy)phenyl)isothiazol-3-ol 1-oxide]
15 | < 300 | Cc1cccc(C)c1-c1cccc(COc2ccc(-c3cc(O)n[s+]3[O-])cc2)c1 (stereo not drawn) [Example 8, 5-(4-((3-(2,6-dimethylphenyl)phenyl)methoxy)phenyl)isothiazol-3-ol 1-oxide]
16 | 300 to 3000 | Cc1cccc(C)c1-c1cccc(COc2ccc(C3=CC(O)=NS3(=O)=O)cc2)c1 [Example 9, 5-(4-((3-(2,6-dimethylphenyl)phenyl)methoxy)phenyl)isothiazol-3-ol 1,1-dioxide]

Row | EC50 [nM] | Compound
17 | < 300 | CCOCCOc1cc(C)c(-c2cccc(COc3ccc(-c4cc(O)n[s+]4[O-])cc3)c2)c(C)c1 (stereo not drawn) [Example 17, 5-(4-((3-(2,6-dimethyl-4-(2-ethoxyethoxy)phenyl)phenyl)methoxy)phenyl)isothiazol-3-ol 1-oxide(A)]
18 | < 300 | CCOCCOc1cc(C)c(-c2cccc(COc3ccc(-c4cc(O)n[s+]4[O-])cc3)c2)c(C)n1 (stereo not drawn) [Example 19, 5-(4-((3-(2,4-dimethyl-6-(2-ethoxyethoxy)pyridin-3-yl)phenyl)methoxy)phenyl)isothiazol-3-ol 1-oxide(A)]
19 | < 300 | CCOCCOc1cc(C)c(-c2cccc(COc3ccc(-c4cc(O)n[s+]4[O-])cc3)c2)c(C)c1F (stereo not drawn) [Example 22, 5-(4-((3-(2,6-dimethyl-4-(2-ethoxyethoxy)-3-fluorophenyl)phenyl)methoxy)phenyl)isothiazol-3-ol 1-oxide(A)]
20 | < 300 | Cc1cc(OCCCS(C)(=O)=O)cc(C)c1-c1cccc(COc2ccc(-c3cc(O)n[s+]3[O-])cc2)c1C (stereo not drawn) [Example 23, 5-(4-((3-(2,6-dimethyl-4-(3-(methylsulfonyl)propoxy)phenyl)-2-methylphenyl)methoxy)phenyl)isothiazol-3-ol 1-oxide(A)]
21 | < 300 | Cc1cc(OCCCS(C)(=O)=O)nc(C)c1-c1cccc(COc2ccc(-c3cc(O)n[s+]3[O-])cc2)c1 (stereo not drawn) [Example 24, 5-(4-((3-(2,4-dimethyl-6-(3-(methylsulfonyl)propoxy)pyridin-3-yl)phenyl)methoxy)phenyl)isothiazol-3-ol 1-oxide(A)]
22 | < 300 | Cc1cc(OCCCS(C)(=O)=O)c(F)c(C)c1-c1cccc(COc2ccc(-c3cc(O)n[s+]3[O-])cc2)c1 (stereo not drawn) [Example 27, 5-(4-((3-(2,6-dimethyl-3-fluoro-4-(3-(methylsulfonyl)propoxy)phenyl)phenyl)methoxy)phenyl)isothiazol-3-ol 1-oxide(A)]
23 | < 300 | Cc1cc(OC2CCS(=O)(=O)CC2)cc(C)c1-c1cccc(COc2ccc(-c3cc(O)n[s+]3[O-])cc2)c1 (stereo not drawn) [Example 28, 5-(4-((3-(2,6-dimethyl-4-((1,1-dioxidetetrahydro-2H-thiopyran-4-yl)oxy)phenyl)phenyl)methoxy)phenyl)isothiazol-3-ol 1-oxide(A)]
24 | < 300 | Cc1cc(OC2CCS(=O)(=O)CC2)cc(C)c1-c1cccc(COc2ccc(-c3cc(O)n[s+]3[O-])cc2)c1C (stereo not drawn) [Example 29, 5-(4-((3-(2,6-dimethyl-4-((1,1-dioxidetetrahydro-2H-thiopyran-4-yl)oxy)phenyl)-2-methylphenyl)methoxy)phenyl)isothiazol-3-ol 1-oxide(A)]
25 | < 300 | Cc1cc(OCCCN2CCCC2=O)cc(C)c1-c1cccc(COc2ccc(-c3cc(O)n[s+]3[O-])cc2)c1 (stereo not drawn) [Example 33]
26 | < 300 | Cc1cc(OCCCN2CCCC2=O)nc(C)c1-c1cccc(COc2ccc(-c3cc(O)n[s+]3[O-])cc2)c1 (stereo not drawn) [Example 35, 5-(4-((3-(2,4-dimethyl-6-(3-(2-oxopyrrolidin-1-yl)propoxy)pyridin-3-yl)phenyl)methoxy)phenyl)isothiazol-3-ol 1-oxide(A)]
27 | 300 to 3000 | Cc1nc(OCCCN2CCCC2=O)nc(C)c1-c1cccc(COc2ccc(-c3cc(O)n[s+]3[O-])cc2)c1C (stereo not drawn) [Example 37, 5-(4-((3-(4,6-dimethyl-2-(3-(2-oxopyrrolidin-1-yl)propoxy)pyrimidin-5-yl)-2-methylphenyl)methoxy)phenyl)isothiazol-3-ol 1-oxide(A)]
28 | < 300 | Cc1cc(OCC2(C)COC2)cc(C)c1-c1cccc(COc2ccc(-c3cc(O)n[s+]3[O-])cc2)c1C (stereo not drawn) [Example 42, 5-(4-((3-(2,6-dimethyl-4-((3-methyl-3-oxetanyl)methoxy)phenyl)-2-methylphenyl)methoxy)phenyl)isothiazol-3-ol 1-oxide(A)]
29 | < 300 | Cc1cc(OCC2(C)COC2)c(F)c(C)c1-c1cccc(COc2ccc(-c3cc(O)n[s+]3[O-])cc2)c1 (stereo not drawn) [Example 43]
30 | < 300 | Cc1cc(OCCCS(C)(=O)=O)cc(C)c1-c1cccc(COc2ccc(-c3cc(O)n[s+]3[O-])cc2)c1 (stereo not drawn) [Example 44, 5-(4-((3-(2,6-dimethyl-4-(3-(methylsulfonyl)propoxy)phenyl)phenyl)methoxy)phenyl)isothiazol-3-ol 1-oxide(A)]
31 | < 300 | Cc1cc(OCCCO)cc(C)c1-c1cccc(COc2ccc(-c3cc(O)n[s+]3[O-])cc2)c1 (stereo not drawn) [Example 47, 5-(4-((3-(2,6-dimethyl-4-(3-hydroxypropoxy)phenyl)phenyl)methoxy)phenyl)isothiazol-3-ol 1-oxide(A)]

Row | Compound | EC50 [nM]
32 | Cc1cc(OCCC(C)(C)O)ncc1-c1cccc(COc2ccc(-c3cc(O)n[s+]3[O-])cc2)c1C (stereo not drawn) [Example 10, 5-(4-((3-(6-(3-hydroxy-3-methylbutoxy)-4-methylpyridin-3-yl)-2-methylphenyl)methoxy)phenyl)isothiazol-3-ol 1-oxide] | < 300
33 | Cc1nc(OCCC(C)(C)O)ccc1-c1cccc(COc2ccc(-c3cc(O)n[s+]3[O-])cc2)c1C (stereo not drawn) [Example 11, 5-(4-((3-(6-(3-hydroxy-3-methylbutoxy)-2-methylpyridin-3-yl)-2-methylphenyl)methoxy)phenyl)isothiazol-3-ol 1-oxide] | < 300
34 | Cc1cc(OCCC(C)(C)O)nc(C)c1-c1cccc(COc2ccc(-c3cc(O)n[s+]3[O-])cc2)c1C (stereo not drawn) [Example 12, 5-(4-((3-(2,4-dimethyl-6-(3-hydroxy-3-methylbutoxy)pyridin-3-yl)-2-methylphenyl)methoxy)phenyl)isothiazol-3-ol 1-oxide] | < 300
35 | Cc1cc(OCCC(C)(C)O)cc(C)c1-c1cccc(COc2ccc(-c3cc(O)n[s+]3[O-])cc2)c1C (stereo not drawn) [Example 13, 5-(4-((3-(2,6-dimethyl-4-(3-hydroxy-3-methylbutoxy)phenyl)-2-methylphenyl)methoxy)phenyl)isothiazol-3-ol 1-oxide] | < 300
36 | Cc1cc(OCCC(C)(C)O)cc(C)c1-c1cccc(COc2ccc(-c3cc(O)n[s+]3[O-])cc2)c1C (stereo not drawn) [Example 31, 5-(4-((3-(2,6-dimethyl-4-(3-hydroxy-3-methylbutoxy)phenyl)-2-methylphenyl)methoxy)phenyl)isothiazol-3-ol 1-oxide(A)] | < 300
